Data: US20250215029A1 (Recludix Pharma, Inc., priority 2022, published 2025)

Experiments:
[1] = molecular target: T1, Recombinant STAT3 protein (STAT3 (G127-I722)) (Homo sapiens, UniProt P40763); test: STAT3 Fluorescence Polarization (FP) Assay; type: binding; settings: STAT3 (G127-I722) 25 nM, probe 5-FAM-GpYLPQTV-NH2 2 nM, 45-minute incubation; read-out: STAT3 (FP assay IC50 class)
T1 construct: Recombinant STAT3 protein (STAT3 (G127-I722))
Procedure, shortened: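 In this competition FP format, STAT3 residues G127-I722 (25 nM) and 2 nM 5-FAM-GpYLPQTV-NH2 met test compounds for 45 min at room temperature. IC50 values result from fitting mP signal against log concentration by nonlinear regression.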

[2] = molecular target: T2, Recombinant STAT6 protein (STAT6 (W123-T658)) (Homo sapiens, UniProt P42226); test: STAT6 Fluorescence Polarization (FP) Assay; type: binding; settings: STAT6 (W123-T658) 250 nM, probe 5-FAM-Ap[…]-NH2 2 nM, 45-minute incubation; read-out: STAT6 (FP assay IC50 class)
T2 construct: Recombinant STAT6 protein (STAT6 (W123-T658))
T2 sequence (P42226 123-658): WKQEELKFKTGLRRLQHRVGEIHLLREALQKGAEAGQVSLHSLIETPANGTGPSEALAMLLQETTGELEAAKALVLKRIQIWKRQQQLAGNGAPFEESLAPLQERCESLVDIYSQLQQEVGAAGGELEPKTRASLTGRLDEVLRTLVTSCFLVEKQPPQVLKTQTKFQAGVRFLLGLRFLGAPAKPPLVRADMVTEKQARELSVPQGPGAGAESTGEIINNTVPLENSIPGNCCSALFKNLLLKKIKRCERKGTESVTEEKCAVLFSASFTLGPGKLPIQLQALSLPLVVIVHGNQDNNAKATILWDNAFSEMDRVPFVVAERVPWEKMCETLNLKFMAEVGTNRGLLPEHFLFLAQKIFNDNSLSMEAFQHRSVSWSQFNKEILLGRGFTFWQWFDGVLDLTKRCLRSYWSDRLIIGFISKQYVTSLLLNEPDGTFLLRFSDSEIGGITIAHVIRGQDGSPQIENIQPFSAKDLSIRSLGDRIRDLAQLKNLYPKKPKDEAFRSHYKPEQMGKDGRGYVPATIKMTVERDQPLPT
Procedure, shortened: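 Competitive FP binding: recombinant STAT6 (W123-T658) at 250 nM, labeled phosphotyrosine peptide at 2 nM, compounds at 1% DMSO, 45 min at RT before reading. IC50 values were obtained from nonlinear regression of mP versus log concentration.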

T1 sequence (P40763 127-722): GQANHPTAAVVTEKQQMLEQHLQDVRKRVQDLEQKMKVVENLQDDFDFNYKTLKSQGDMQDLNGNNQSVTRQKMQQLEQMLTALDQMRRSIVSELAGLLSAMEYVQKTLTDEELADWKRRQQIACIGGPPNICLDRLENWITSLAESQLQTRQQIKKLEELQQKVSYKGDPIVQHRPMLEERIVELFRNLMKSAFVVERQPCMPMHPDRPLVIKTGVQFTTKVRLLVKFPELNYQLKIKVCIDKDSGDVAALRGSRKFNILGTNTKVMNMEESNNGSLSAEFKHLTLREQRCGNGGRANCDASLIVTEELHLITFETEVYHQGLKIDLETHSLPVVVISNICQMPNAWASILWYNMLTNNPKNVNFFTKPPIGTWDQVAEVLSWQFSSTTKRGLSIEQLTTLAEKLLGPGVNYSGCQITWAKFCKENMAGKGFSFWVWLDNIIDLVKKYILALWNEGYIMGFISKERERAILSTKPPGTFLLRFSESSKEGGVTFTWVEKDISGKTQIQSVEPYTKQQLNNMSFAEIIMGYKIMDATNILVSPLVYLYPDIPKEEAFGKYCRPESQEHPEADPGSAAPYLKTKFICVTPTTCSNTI

Row | Structure (SMILES) | IC50 [1] | IC50 [2]
1 | O=C(N[C@H]1CCCC[C@H]2CC[C@@H](C(=O)N3CCC(c4cccnc4)C3)N2C1=O)c1ccc2ccc(CP(=O)(O)O)cc2c1 (stereo partly drawn) [Compound 217, ((7-(((3S,6S,10aS)-5-oxo-3-(3-(pyridin-3-yl)pyrrolidine-1-carbonyl)decahydropyrrolo[1,2-a]azocin-6-yl)carbamoyl)naphthalen-2-yl)methyl)phosphonic acid] | 1000 to 10000 nM | 3000 to 30000 nM
2 | O=C(N[C@H]1CCCC[C@H]2CC[C@@H](C(=O)N3CCC(c4cccnc4)C3)N2C1=O)c1ccc2ccc(C(F)(F)P(=O)(O)O)cc2c1 (stereo partly drawn) [Compound 218, (difluoro(7-(((3S,6S,10aS)-5-oxo-3-(3-(pyridin-3-yl)pyrrolidine-1-carbonyl)decahydropyrrolo[1,2-a]azocin-6-yl)carbamoyl)naphthalen-2-yl)methyl)phosphonic acid] | 100 to 1000 nM | ≤ 300 nM
3 | CC(=O)N1C[C@H](NC(=O)[C@@H]2CC[C@@H]3CCC[C@H](NC(=O)c4cc5cc(CP(=O)(O)O)ccc5s4)C(=O)N32)[C@@H](F)C1 [Compound 219, ((2-(((3S,6S,9aS)-3-(((3S,4S)-1-acetyl-4-fluoropyrrolidin-3-yl)carbamoyl)-5-oxooctahydro-1H-pyrrolo[1,2-a]azepin-6-yl)carbamoyl)benzo[b]thiophen-5-yl)methyl)phosphonic acid] | 1000 to 10000 nM | 3000 to 30000 nM
4 | CC(F)(c1ccc2sc(C(=O)N[C@H]3CCC[C@H]4CC[C@@H](C(=O)N5CC(c6cccnc6)C5)N4C3=O)cc2c1)P(=O)(O)O (stereo partly drawn) [Compound 221, (1-fluoro-1-(2-(((3S,6S,9aS)-5-oxo-3-(3-(pyridin-3-yl)azetidine-1-carbonyl)octahydro-1H-pyrrolo[1,2-a]azepin-6-yl)carbamoyl)benzo[b]thiophen-5-yl)ethyl)phosphonic acid] | < 100 nM | 3000 to 30000 nM
5 | CC(F)(c1ccc2sc(C(=O)N[C@H]3CCCC[C@H]4CC[C@@H](C(=O)N5CCC(c6cccnc6)C5)N4C3=O)cc2c1)P(=O)(O)O (stereo partly drawn) [Compound 222, (1-fluoro-1-(2-(((3S,6S,10aS)-5-oxo-3-(3-(pyridin-3-yl)pyrrolidine-1-carbonyl)decahydropyrrolo[1,2-a]azocin-6-yl)carbamoyl)benzo[b]thiophen-5-yl)ethyl)phosphonic acid] | 100 to 1000 nM | 300 to 3000 nM
6 | O=C(N[C@H]1CCCC[C@H]2CC[C@@H](C(=O)N3CCC(c4cccnc4)C3)N2C1=O)c1cc2cc(C(F)P(=O)(O)O)ccc2s1 (stereo partly drawn) [Compound 223, (fluoro(2-(((3S,6S,10aS)-5-oxo-3-(3-(pyridin-3-yl)pyrrolidine-1-carbonyl)decahydropyrrolo[1,2-a]azocin-6-yl)carbamoyl)benzo[b]thiophen-5-yl)methyl)phosphonic acid] | 100 to 1000 nM | 300 to 3000 nM
7 | O=C(N[C@@H]1C(=O)N2[C@@H](CCC[C@H]1C1CC1)CC[C@H]2C(=O)N1CC(c2cccnc2)C1)c1cc2cc(C(F)(F)P(=O)(O)O)ccc2s1 [Compound 233, ((2-(((3S,6S,7S,10aS)-7-cyclopropyl-5-oxo-3-(3-(pyridin-3-yl)azetidine-1-carbonyl)decahydropyrrolo[1,2-a]azocin-6-yl)carbamoyl)benzo[b]thiophen-5-yl)difluoromethyl)phosphonic acid] | < 100 nM | 3000 to 30000 nM
8 | COc1ccncc1C1CN(C(=O)[C@@H]2CC[C@@H]3CCCC[C@H](NC(=O)c4cc5cc(C(F)P(=O)(O)O)ccc5s4)C(=O)N32)C1 (stereo partly drawn) [Compound 236, (fluoro(2-(((3S,6S,10aS)-3-(3-(4-methoxypyridin-3-yl)azetidine-1-carbonyl)-5-oxodecahydropyrrolo[1,2-a]azocin-6-yl)carbamoyl)benzo[b]thiophen-5-yl)methyl)phosphonic acid] | < 100 nM | 3000 to 30000 nM
9 | CCC[C@@H]1CC[C@H](NC(=O)c2cc3cc(C(F)P(=O)(O)O)ccc3s2)C(=O)N2[C@H](CC[C@H]2C(=O)N2CC(c3cnccc3OC)C2)C1 (stereo partly drawn) [Compound 241, (fluoro(2-(((3S,6S,9R,10aR)-3-(3-(4-methoxypyridin-3-yl)azetidine-1-carbonyl)-5-oxo-9-propyldecahydropyrrolo[1,2-a]azocin-6-yl)carbamoyl)benzo[b]thiophen-5-yl)methyl)phosphonic acid] | < 100 nM | 3000 to 30000 nM
10 | O=C(N[C@H]1CCCC[C@H]2CC[C@@H](C(=O)N3C[C@@H](c4cccnc4)CC34CC4)N2C1=O)c1cc2cc(CP(=O)(O)O)ccc2s1 [Compound 244, ((2-(((3S,6S,10aS)-5-ox0-3-((R)-6-(pyridin-3-yl)-4-azaspiro[2.4]heptane-4-carbonyl)decahydropyrrolo[1,2-a]azocin-6-yl)carbamoyl)benzo[b]thiophen-5-yl)methyl)phosphonic acid] | 1000 to 10000 nM | 300 to 3000 nM
11 | CC[C@H]1CC[C@H](NC(=O)c2cc3cc(C(F)P(=O)(O)O)ccc3s2)C(=O)N2[C@H](CC[C@H]2C(=O)N2CC(c3cnccc3OC)C2)C1 (stereo partly drawn) [Compound 245, ((2-(((3S,6S,9S,10aR)-9-ethyl-3-(3-(4-methoxypyridin-3-yl)azetidine-1-carbonyl)-5-oxodecahydropyrrolo[1,2-a]azocin-6-yl)carbamoyl)benzo[b]thiophen-5-yl)fluoromethyl)phosphonic acid] | < 100 nM | 3000 to 30000 nM
12 | COc1ccncc1C1CN(C(=O)[C@@H]2CC[C@@H]3C[C@@H](C(C)C)CC[C@H](NC(=O)c4cc5cc(C(F)P(=O)(O)O)ccc5s4)C(=O)N32)C1 (stereo partly drawn) [Compound 246, (fluoro(2-(((3S,6S,9S,10aR)-9-isopropyl-3-(3-(4-methoxypyridin-3-yl)azetidine-1-carbonyl)-5-oxodecahydropyrrolo[1,2-a]azocin-6-yl)carbamoyl)benzo[b]thiophen-5-yl)methyl)phosphonic acid] | < 100 nM | 3000 to 30000 nM
13 | CCC[C@H]1CC[C@H](NC(=O)c2cc3cc(C(F)P(=O)(O)O)ccc3s2)C(=O)N2[C@H](CC[C@H]2C(=O)N2CC(c3cnccc3OC)C2)C1 (stereo partly drawn) [Compound 247, (fluoro(2-(((3S,6S,9S,10aR)-3-(3-(4-methoxypyridin-3-yl)azetidine-1-carbonyl)-5-oxo-9-propyldecahydropyrrolo[1,2-a]azocin-6-yl)carbamoyl)benzo[b]thiophen-5-yl)methyl)phosphonic acid] | < 100 nM | 3000 to 30000 nM
14 | CC(O)C1(c2ccccc2)CN(C(=O)[C@@H]2CC[C@@H]3CCCC[C@H](NC(=O)c4cc5cc(C(F)(F)P(=O)(O)O)ccc5s4)C(=O)N32)C1 (stereo partly drawn) [Compound 495, (difluoro(2-(((3S,6S,10aS)-3-(3-(1-hydroxyethyl)-3-phenylazetidine-1-carbonyl)-5-oxodecahydropyrrolo[1,2-a]azocin-6-yl)carbamoyl)benzo[b]thiophen-5-yl)methyl)phosphonic acid] | 100 to 1000 nM | 3000 to 30000 nM
15 | Cc1cc(C#N)cnc1C1CN(C(=O)[C@@H]2CC[C@@H]3CCCC[C@H](NC(=O)c4cc5cc(C(F)(F)P(=O)(O)O)ccc5s4)C(=O)N32)C1 [Compound 496, ((2-(((3S,6S,10aS)-3-(3-(5-cyano-3-methylpyridin-2-yl)azetidine-1-carbonyl)-5-oxodecahydropyrrolo[1,2-a]azocin-6-yl)carbamoyl)benzo[b]thiophen-5-yl)difluoromethyl)phosphonic acid] | < 100 nM | 300 to 3000 nM
16 | O=C(N[C@H]1CCCC[C@H]2CC[C@@H](C(=O)N3CC(c4nc5ccccc5o4)C3)N2C1=O)c1cc2cc(C(F)(F)P(=O)(O)O)ccc2s1 [Compound 497, ((2-(((3S,6S,10aS)-3-(3-(benzo[d]oxazol-2-yl)azetidine-1-carbonyl)-5-oxodecahydropyrrolo[1,2-a]azocin-6-yl)carbamoyl)benzo[b]thiophen-5-yl)difluoromethyl)phosphonic acid] | 100 to 1000 nM | 300 to 3000 nM
17 | COC1(c2cccnc2)CN(C(=O)[C@@H]2CC[C@@H]3CCC[C@H](NC(=O)c4cc5cc(C(F)(F)P(=O)(O)O)ccc5s4)C(=O)N32)C1 [Compound 498, (difluoro(2-(((3S,6S,9aS)-3-(3-methoxy-3-(pyridin-3-yl)azetidine-1-carbonyl)-5-oxooctahydro-1H-pyrrolo[1,2-a]azepin-6-yl)carbamoyl)benzo[b]thiophen-5-yl)methyl)phosphonic acid] | < 100 nM | 300 to 3000 nM
18 | Cc1ccncc1C1CN(C(=O)[C@@H]2CC[C@@H]3CCCC[C@H](NC(=O)c4cc5cc(C(F)(F)P(=O)(O)O)ccc5s4)C(=O)N32)C1 [Compound 499, (difluoro(2-(((3S,6S,10aS)-3-(3-(4-methylpyridin-3-yl)azetidine-1-carbonyl)-5-oxodecahydropyrrolo[1,2-a]azocin-6-yl)carbamoyl)benzo[b]thiophen-5-yl)methyl)phosphonic acid] | < 100 nM | 300 to 3000 nM
